Data from BindingDB's records for patent US20230416245 (Biointervene, 2023).

Target: T1, Adenosine receptor A3 (Homo sapiens, UniProt P0DMS8)
T1 sequence (P0DMS8 whole entry): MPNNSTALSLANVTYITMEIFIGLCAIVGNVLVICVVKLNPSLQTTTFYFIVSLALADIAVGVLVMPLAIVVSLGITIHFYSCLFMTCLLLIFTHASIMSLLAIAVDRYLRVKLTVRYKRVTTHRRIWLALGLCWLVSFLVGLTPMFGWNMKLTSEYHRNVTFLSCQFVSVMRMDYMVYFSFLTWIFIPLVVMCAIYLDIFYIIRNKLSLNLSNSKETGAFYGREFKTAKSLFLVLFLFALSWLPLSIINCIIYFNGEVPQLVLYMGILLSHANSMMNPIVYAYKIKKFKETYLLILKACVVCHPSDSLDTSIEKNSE
Assay: Adenosine Receptor Binding Assay
Procedure: Radioligand-binding assays were performed using the adenosine A3 receptor agonist [125I]-AB-MECA and the A1 receptor agonist [3H]CCPA. Binding assays were conducted in a total volume of 100 μL containing a 50 mM Tris, pH 7.4 buffer with or without 10 mM MgCl2, 20 μg membranes and either 0.15 nM [125I]-AB-MECA (for the A3 receptor) or 1 nM [3H]CCPA (for the A1 receptor). Assays were conducted at room temperature for 60 min (A1 receptor) or 120 min (A3 receptor) and terminated by the addition of 2 ml of ice-cold wash buffer (50 mM Tris, pH 7.4 with or without 10 mM MgCl2) and rapid filtration over 0.03% polyethylenimine-treated Whatman GF/C filters using a Brandel cell harvester (Semat International Ltd., St Albans, UK). Filters were then washed three times with 2 ml of ice-cold buffer. The filter-bound radioactivity were counted using a Compugamma counter (LKB Wallac, Turku, Finland). Competition experiments were performed to investigate the ability of reference compounds and embodiments of the invention to inhibit [125I]-AB-MECA binding. Non-specific binding were determined using the respective compound at its highest concentration

Ki: 0.23 nM
Structure (SMILES): CCNc1cc(Cl)nc2c1ncn2[C@H]1[C@H](O)[C@H](O)[C@]2(C(=O)NC)C[C@H]12 [US20230416245, Compound 59]
